Measurements: publication PMC3422259, “Additive Mixture Effects of Estrogenic Chemicals in Human Cell-Based Assays Can Be Influenced by Inclusion of Chemicals with Differing Effect Profiles” (PLoS ONE, 2012)
Read-outs that look alike come from different tables or passages of the source.

Assays:
MCF-7 cells = experiment: Estrogenicity assay, mitogenic endpoint (ESCREEN); parameters: Emax: dose or concentration left out as unconfirmed
Experimental: The ESCREEN assay was performed using cloned MCF-7 cells (described in [6], gifted from A. Soto, Boston) and the established ESCREEN method was followed using an adapted 96-well format. Cells were cultured in DMEM (5% FCS). For experiments, cells were seeded in clear polystyrene 96 well plates at a density of 2,500 cells/well and allowed to attach for 24 hours before washing with rinse media (phenol red-free DMEM, no supplements). […] Test chemicals were dissolved in ethanol to give stock solutions of millimolar concentrations. Test and control solutions were diluted prior to application in dosing media (phenol red free DMEM, 10% charcoal-dextran stripped FCS). The final concentration of ethanol was 0.5% in test and control wells. […] At all stages, media removal from cells was carried out gently and in a controlled fashion by use of an electronic multichannel pipette set to the lowest speed possible. Controls were run as eight replicate wells per plate and compounds were tested in a dilution series comprising eight concentrations, each concentration tested in two replicate wells per plate. The plate layout was designed to reduce variation due to evaporation and spreading of test chemicals, and had been previously optimised in the laboratory. After application of test solutions, plates were incubated for 120 hours before fixation with 10% trichloroacetic acid and sulforhodamine B (SRB) staining to measure protein and allow the indirect quantification of cell number.
(§1) Experiments were performed on different days meaning that results for different dilution series and different batches of the test chemicals were obtained on different days. Each single chemical was tested in three or more independent experiments. Use of normalisation meant that data from different experiments could be reliably combined and compared, as discussed previously. Data was expressed relative to the positive control, rather than as fold change from the vehicle response, for two reasons.
(§2) Results from regression analysis for each test chemicals were used to predict the CA effect for fixed-ratio mixtures designed on 1) equi-effective concentrations (balanced design), 2) possible human serum levels (non-balanced design). The original mathematical formulation of CA that defines for a mixture composed of n components with concentration c1 of the first component, c2 of the second component, and cn for the n-th component a combination effect X is [drawing 1] (1) Here, ECX1, ECX1 …, ECXn are the concentrations of the individual components that on their own produce the same effect X as the mixture, [15] The quotients cn/ECXn are called toxic units and scale all compounds in the mixture relative to their toxicity. They can be interpreted as the contribution of the compound to the total mixture concentration that is expected to produce the mixture effect X. According to equation 1, a mixture effect for a pre-defined effect level X is described only implicitly. However, if the individual concentrations ci are expressed as relative fractions pi to the total mixture concentration ECxMix, then equation 1 can be re-arranged to [drawing 2] (2) which allows the direct calculation of the mixture concentration that is expected to produce the mixture effect X. To form a prediction curve, equation 2 is iterated through for various effect levels resulting in sets of effects and their associated predicted mixture concentration which are then plotted to produce a graph of the effect prediction.
Both equations 1 and 2 require knowledge of the concentration of each mixture component that on its own produces the effect magnitude under consideration. For this reason, these equations cannot be used for predicting mixture effects that exceed the maximal effect of the least efficacious component, because those effect concentrations cannot be defined.

T47D-KBluc cells = experiment: cells; parameters: Emax: dose or concentration left out as unconfirmed
Experimental: T47D-KBluc cells were obtained from the ATCC and the protocol established by the depositing authors was followed. Cells were routinely grown in RPMI media (with 10% foetal calf serum (FCS)). For seven days prior to experiments, cells were maintained in low estrogen conditions by the use of pre-assay media (RPMI, 10% charcoal-dextran stripped FCS, no antibiotics). For experiments, cells were seeded in white polystyrene 96 well plates at a density of 10,000 cells/well and allowed to attach for 24 hours before removal of media, and application of test chemicals. Test chemicals were dissolved in ethanol to give stock solutions of millimolar concentrations. Test and control solutions were obtained by dilution of ethanolic stocks in dosing media (phenol red-free RPMI, 5% charcoal-dextran stripped FCS, no antibiotics), and in all cases the final concentration of ethanol was 0.5%. The positive control was 1 nM estradiol. Positive and vehicle controls were run as eight replicate wells per plate, and compounds were tested in a dilution series comprising eight concentrations, each concentration tested in triplicate. As recommended by Wilson et al. two additional controls were also included on each plate: 1) vehicle control plus an antiestrogen, ICI 182,780 (1 µM), and 2) positive control plus ICI 182,780 (1 µM). […] A crude measure of toxicity was provided by comparing values for treatments that were not positive, with the value of the vehicle control. […] 24 hours after application of test and control solutions, a volume of Steady-Glo assay reagent (Promega) equal to the volume of culture media was added and plates were incubated for ten minutes, with shaking, to allow for cell lysis. Plates were then loaded into a plate reader (FLUOstar Optima, BMG Labtech) and incubated for a further ten minutes in the dark, followed by measurement of luminescence. To reduce variation, the temperature of the plate reader chamber was maintained at 27°C throughout.
as §1
Effect concentrations (ECx) were defined relative to the effects of the estradiol concentration used as the positive control, for example EC50 is the concentration producing an effect of 50% of the positive control (estradiol, 1 nM (ERLUX) or 25 nM (ESCREEN)).
as §2, with “implicitly.” for “implicitly. However, if the individual concentrations ci are expressed as relative fractions pi to the total mixture concentration ECxMix, then equation 1 can be re-arranged to [drawing 2] (2) which allows the direct calculation of the mixture concentration that is expected to produce the mixture effect X. To form a prediction curve, equation 2 is iterated through for various effect levels resulting in sets of effects and their associated predicted mixture concentration which are then plotted to produce a graph of the effect prediction.”

[1] = Homo sapiens, MCF7, read-out: Concentration Response Function θ^∧ max
[2] = Homo sapiens, MCF7, read-out: Maxima at effect levels relative to that of estradiol (submaximal response)
[3] = Homo sapiens, read-out: Concentration Response Function θ^∧ max
[4] = Homo sapiens, read-out: Supramaximal response, of estradiol maxima

Row | Molecule | EC10 (MCF-7 cells; Homo sapiens, MCF7, 120 h) [nM] | EC25 (MCF-7 cells; Homo sapiens, MCF7, 120 h) [µM] | Emax (MCF-7 cells; [1]) [%] | Emax (MCF-7 cells; [2]) [%] | EC10 (T47D-KBluc cells; Homo sapiens, 24 h) [µM] | EC25 (T47D-KBluc cells; Homo sapiens, 24 h) [µM] | Emax (T47D-KBluc cells; [3]) [%] | Emax (T47D-KBluc cells; [4]) [%] | EC10 (MCF-7 cells; ESCREEN, concentration provoking 10% effect relative to positive control 25 nM estradiol, 120 hours) [nM] | EC25 (MCF-7 cells; ESCREEN, concentration provoking 25% effect relative to positive control 25 nM estradiol, 120 hours) [µM] | Concentration Response Function θ^∧ max (MCF-7 cells; ESCREEN, estimated maximal model asymptote, effect relative to positive control (25 nM estradiol)) | EC10 (T47D-KBluc cells; ERLUX, concentration producing 10% effect relative to positive control 1 nM estradiol, 24 hours) [µM] | EC25 (T47D-KBluc cells; ERLUX, concentration producing 25% effect relative to positive control 1 nM estradiol, 24 hours) [µM] | Concentration Response Function θ^∧ max (T47D-KBluc cells; ERLUX, estimated maximal model asymptote, effect relative to positive control (1 nM estradiol))
1 | Cc1ccc(/C=C2/C(=O)C3(C)CCC2C3(C)C)cc1 (centres unmarked) [4MBC, 4-methylbenzylidene camphor] | 899 | 2.21 | 63 | 60 to 70 | 1.81 | 5 | 82 |  |  |  |  |  |  | 
2 | Brc1ccc(Oc2c(Br)cc(Br)cc2Br)c(Br)c1 [BDE100, Brominated diphenyl ether-100] | 704 | 2.41 | 71 |  | 5.36 | 12.8 | 172 |  |  |  |  |  |  | 
3 | COc1ccc(C(=O)c2ccccc2)c(O)c1 [Benzophenone-3] | 1300 | 4.31 | 63 | 60 to 70 | 2.27 | 4.61 | 177 | 150 |  |  |  |  |  | 
4 | CC(C)(c1ccc(O)cc1)c1ccc(O)cc1 [Bisphenol A] | 45.2 | 0.0818 | 121 |  | 0.155 | 0.258 | 144 | 150 |  |  |  |  |  | 
5 | CCCCOC(=O)c1ccc(O)cc1 [Butylparaben] | 571 | 1.32 | 101 |  | 0.497 | 0.881 | 331 | 300 |  |  |  |  |  | 
6 | O=c1oc2cc(O)ccc2c2oc3cc(O)ccc3c12 [Coumestrol] | 1.56 | 0.005 | 131 |  | 0.00158 | 0.00342 | 101 |  |  |  |  |  |  | 
7 | C#C[C@]1(O)CC[C@H]2[C@@H]3CCc4cc(O)ccc4[C@H]3CC[C@@]21C [EE2, Ethinyl estradiol, reference compound] | 0.000635 | 1.81e-06 | 114 |  | 6.51e-07 | 1.32e-06 | 105 |  |  |  |  |  |  | 
8 | OC[C@H](Cc1cccc(O)c1)[C@H](CO)Cc1cccc(O)c1 [Enterodiol] | 3850 | 7.45 | 45 |  |  |  |  |  |  |  |  |  |  | 
9 | O=C1OC[C@H](Cc2cccc(O)c2)[C@H]1Cc1cccc(O)c1 [Enterolactone] | 4150 | 7.22 | 139 |  | 3.77 | 8.18 | 104 |  |  |  |  |  |  | 
10 | C[C@]12CC[C@@H]3c4ccc(O)cc4CC[C@H]3[C@@H]1CC[C@@H]2O [Estradiol, reference compound] | 0.00112 | 3.12e-06 | 133 |  | 6.53e-07 | 1.45e-06 | 123 |  |  |  |  |  |  | 
11 | c1ccc2c(c1)-c1cccc3cccc-2c13 [Fluoranthene] | 33900 | 88.5 | 38 |  | 60 |  | 16 |  |  |  |  |  |  | 
12 | CC1COCc2cc3c(cc21)C(C)(C)C(C)C3(C)C (centres unmarked) [Galaxolide, Galaxolide (HHCB)] | 5390 | 12.3 | 69 |  | 3.93 | 7.73 | 91 |  |  |  |  |  |  | 
13 | O=c1c(-c2ccc(O)cc2)coc2cc(O)cc(O)c12 [Genistein] | 4.61 | 0.0136 | 93 |  | 0.0124 | 0.0196 | 148 | 200 |  |  |  |  |  | 
14 | COC(=O)c1ccc(O)cc1 [Methylparaben] | 7640 | 18 | 79 |  | 8.14 | 17.1 | 206 |  |  |  |  |  |  | 
15 | O=C1C[C@@H](c2ccc(O)cc2)Oc2cc(O)cc(O)c21 [Naringenin] | 360 | 0.833 | 110 |  | 0.31 | 0.506 | 114 |  |  |  |  |  |  | 
16 | CCCOC(=O)c1ccc(O)cc1 [Propylparaben] | 997 | 2.16 | 109 |  | 1.3 | 2.21 | 260 |  |  |  |  |  |  | 
17 | Tonalide (AHTN) |  |  |  |  |  |  |  |  | 1970 | 6.13 | 0.46 | 3.61 | 206 | 0.28
